According to patent US9023789B2, “Amylin analogs and pharmaceutical compositions thereof” (Novo Nordisk A/S, priority 2012, dated 2015):
≈ marks a conversion by molar mass, not a printed value. Like-named read-outs stand apart in the source and are kept apart here. Numbered stars: 1 amine (or outer) side, 2 acyl side, 3 side chain; on linkers, the order of the positions; unused ones are H or OH. Bridge positions count the residues as written; N and C are the ends. Side chains are listed from the residue outwards. Peptide text beside a SMILES is read from it. * marks the point of attachment. C20 diacid = O=C(O)CCCCCCCCCCCCCCCCCCC(=O)*; γGlu = O=C(O)[C@H](CCC(=O)[*:2])N[*:1]; AEEA = NCCOCCOCC(=O)O

Columns and labels:
[1] = ASSAY (IV) determination of solubility; format: physicochemical
How it was run: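 Samples of polypeptide, prepared from a water stock at […] and diluted 1:1 into 100 mM buffers spanning pH 3.0 to 8.0, stood 18 hours at room temperature. Polypeptide concentration was then determined by UPLC following centrifugation.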

[2] = ASSAY (III) ThT fibrillation assay for physical stability; format: physicochemical
How it was run: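 Physical stability scored by ThT fluorescence (444 nm excitation, 485 nm emission) tracked every 20 min during 37 °C incubation with 960 rpm shaking, ThT at 1 μM final. Values are replicate means with SD at chosen times; HPLC against pramlintide standard gives initial and post-assay soluble concentrations.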

rat calcitonin receptor = target: T1, rat calcitonin receptor (Rattus norvegicus, UniProt P32214); assay: ASSAY (VIII) binding to the rat calcitonin receptor; conditions: Table 7, read-out: rCTR bind IC50
T1 construct: expressed in transfected cells; host or cells: BHK tk'ts 13 (transient, FuGENE 6), membranes
T1 sequence (P32214 25-479 isoform P32214-2 limits assumed): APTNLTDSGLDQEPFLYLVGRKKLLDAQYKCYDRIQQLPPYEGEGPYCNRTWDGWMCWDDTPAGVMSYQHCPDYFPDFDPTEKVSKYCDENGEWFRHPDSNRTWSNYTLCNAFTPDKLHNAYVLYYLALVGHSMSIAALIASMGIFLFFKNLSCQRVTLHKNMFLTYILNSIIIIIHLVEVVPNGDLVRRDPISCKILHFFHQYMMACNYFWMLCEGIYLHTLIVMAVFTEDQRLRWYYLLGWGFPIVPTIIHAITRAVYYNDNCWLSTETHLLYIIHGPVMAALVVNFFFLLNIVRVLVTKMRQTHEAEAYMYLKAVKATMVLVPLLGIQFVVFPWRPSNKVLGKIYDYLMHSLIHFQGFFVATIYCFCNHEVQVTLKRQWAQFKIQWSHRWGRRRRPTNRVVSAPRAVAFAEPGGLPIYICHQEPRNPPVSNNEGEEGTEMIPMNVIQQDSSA
How it was run: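 Cell membranes for binding came from BHK tk′ts 13 cells harvested approximately 48 hours after transient transfection with the rat receptor.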

[3] = bistrispropane buffer, pH 6.5, read-out: Solubility pH 6.5 Concentration
[4] = bistrispropane buffer, pH 7.5, read-out: Solubility pH 7.5 Concentration
[5] = bistrispropane buffer, pH 6.0, read-out: Solubility pH 6.0 Concentration
[6] = bistrispropane buffer, pH 7.0, read-out: Solubility pH 7.0 Concentration
[7] = bistrispropane buffer, pH 8.0, read-out: Solubility pH 8.0 Concentration
[8] = glycylglycine buffer, pH 3.0, read-out: Solubility pH 3.0 Concentration
[9] = glycylglycine buffer, pH 4.0, read-out: Solubility pH 4.0 Concentration
[10] = glycylglycine buffer, pH 5.0, read-out: Solubility pH 5.0 Concentration

Row | Structure (SMILES) | solubility at 18 h [1, 3] [µM] | solubility at 18 h [1, 4] [µM] | solubility at 18 h [1, 5] [µM] | solubility at 18 h [1, 6] [µM] | solubility at 18 h [1, 7] [µM] | solubility at 18 h [1, 8] [µM] | solubility at 18 h [1, 9] [µM] | solubility at 18 h [1, 10] [µM] | ThT pH 4.0 lag time (h) [2] [h] | IC50 (rat calcitonin receptor) [nM]
1 | CC(C)C[C@H](NC(=O)[C@H](CCCNC(=N)N)NC(=O)[C@H](CCC(N)=O)NC(=O)[C@@H](NC(=O)[C@H](C)NC(=O)[C@@H]1CSSC[C@H](NC(=O)[C@@H](N)CCCCNC(=O)CC[C@H](NC(=O)CC[C@H](NC(=O)CCCCCCCCCCCCCCCCCCC(=O)O)C(=O)O)C(=O)O)C(=O)N[C@@H](CC(N)=O)C(=O)N[C@@H]([C@@H](C)O)C(=O)N[C@@H](C)C(=O)N[C@@H]([C@@H](C)O)C(=O)N1)[C@@H](C)O)C(=O)N[C@@H](C)C(=O)N[C@@H](CC(=O)O)C(=O)N[C@@H](Cc1ccccc1)C(=O)N[C@@H](CC(C)C)C(=O)N[C@@H](CCCNC(=N)N)C(=O)N[C@@H](Cc1c[nH]cn1)C(=O)N[C@@H](CO)C(=O)N[C@@H](CO)C(=O)N1CCC[C@H]1C(=O)N[C@@H](CC(N)=O)C(=O)N[C@@H](Cc1ccccc1)C(=O)NCC(=O)N[C@@H](C)C(=O)N1CCC[C@H]1C(=O)N[C@@H](CC(C)C)C(=O)N[C@@H](CO)C(=O)N[C@@H](CO)C(=O)N[C@H](C(=O)N[C@@H](CC(N)=O)C(=O)N[C@H](C(=O)NCC(=O)N[C@@H](CO)C(=O)N[C@@H](CC(=O)O)C(=O)N[C@H](C(=O)N[C@@H](Cc1ccc(O)cc1)C(N)=O)[C@@H](C)O)C(C)C)[C@@H](C)O [Example 1] (H-K([γGlu-γGlu-C20 diacid])CNTATCATQRLADFLRHSSPNFGAPLSSTNVGSDTY-NH2; disulfide 2-7) | ≥ 200 | ≥ 200 | ≥ 200 | ≥ 200 | ≥ 200 | ≥ 200 | ≥ 200 | 172 (≈ 776 µg/mL) | 0 | 135
2 | CC[C@H](C)[C@H](NC(=O)[C@H](C)NC(=O)CNC(=O)[C@H](Cc1ccccc1)NC(=O)[C@H](CC(N)=O)NC(=O)[C@@H]1CCCN1C(=O)[C@H](CO)NC(=O)[C@H](CO)NC(=O)[C@H](Cc1c[nH]cn1)NC(=O)[C@H](CCCNC(=N)N)NC(=O)[C@H](CC(C)C)NC(=O)[C@H](Cc1ccccc1)NC(=O)[C@@H](NC(=O)[C@H](C)NC(=O)[C@H](CC(C)C)NC(=O)[C@H](CCCNC(=N)N)NC(=O)[C@H](CCC(N)=O)NC(=O)[C@@H](NC(=O)[C@H](C)NC(=O)[C@@H]1CSSC[C@H](NC(=O)[C@@H](N)CCCCNC(=O)COCCOCCNC(=O)CC[C@H](NC(=O)CCCCCCCCCCCCCCCCCCC(=O)O)C(=O)O)C(=O)N[C@@H](CC(N)=O)C(=O)N[C@@H]([C@@H](C)O)C(=O)N[C@@H](C)C(=O)N[C@@H]([C@@H](C)O)C(=O)N1)[C@@H](C)O)[C@@H](C)O)C(=O)N1CCC[C@H]1C(=O)N[C@@H](CO)C(=O)N[C@@H](CO)C(=O)N[C@H](C(=O)N1CCC[C@H]1C(=O)N[C@H](C(=O)NCC(=O)N[C@@H](CO)C(=O)N[C@@H](CC(N)=O)C(=O)N[C@H](C(=O)N[C@@H](Cc1ccc(O)cc1)C(N)=O)[C@@H](C)O)C(C)C)[C@@H](C)O [Example 75] (H-K([AEEA-γGlu-C20 diacid])CNTATCATQRLATFLRHSSPNFGAIPSSTPVGSNTY-NH2; disulfide 2-7 (inferred); N-terminus assumed) | ≥ 200 | 193 (≈ 868 µg/mL) | ≥ 200 | ≥ 200 | 150 (≈ 674 µg/mL) | ≥ 200 | ≥ 200 | ≥ 200 | 25 | 442

These reach a lower IC50 (rat calcitonin receptor). Values come first.

Row | solubility at 18 h [1, 3] [µM] | solubility at 18 h [1, 4] [µM] | solubility at 18 h [1, 5] [µM] | solubility at 18 h [1, 6] [µM] | solubility at 18 h [1, 7] [µM] | solubility at 18 h [1, 8] [µM] | solubility at 18 h [1, 9] [µM] | solubility at 18 h [1, 10] [µM] | ThT pH 4.0 lag time (h) [2] [h] | IC50 (rat calcitonin receptor) [nM] | Structure (SMILES)
3 | ≥ 200 | ≥ 200 | ≥ 200 | ≥ 200 | ≥ 200 | ≥ 200 | ≥ 200 | ≥ 200 | 4 | 7.6 | CC[C@H](C)[C@H](NC(=O)[C@H](C)NC(=O)CNC(=O)[C@H](Cc1ccccc1)NC(=O)[C@H](CC(N)=O)NC(=O)[C@@H]1CCCN1C(=O)[C@H](CO)NC(=O)[C@H](CO)NC(=O)[C@H](Cc1c[nH]cn1)NC(=O)[C@H](CCCNC(=N)N)NC(=O)[C@H](CC(C)C)NC(=O)[C@H](Cc1ccccc1)NC(=O)[C@H](CC(N)=O)NC(=O)[C@H](C)NC(=O)[C@H](CC(C)C)NC(=O)[C@H](CCCNC(=N)N)NC(=O)[C@H](CCC(N)=O)NC(=O)[C@@H](NC(=O)[C@H](C)NC(=O)[C@@H]1CSSC[C@H](NC(=O)[C@@H](N)CCCCNC(=O)COCCOCCNC(=O)CCCCCCCCCCCCCCCCCCC(=O)O)C(=O)N[C@@H](CC(N)=O)C(=O)N[C@@H]([C@@H](C)O)C(=O)N[C@@H](C)C(=O)N[C@@H]([C@@H](C)O)C(=O)N1)[C@@H](C)O)C(=O)N1CCC[C@H]1C(=O)N[C@@H](CO)C(=O)N[C@@H](CO)C(=O)N[C@H](C(=O)N[C@@H](CC(N)=O)C(=O)N[C@H](C(=O)NCC(=O)N[C@@H](CO)C(=O)N[C@@H](CC(N)=O)C(=O)N[C@H](C(=O)N[C@@H](Cc1ccc(O)cc1)C(N)=O)[C@@H](C)O)C(C)C)[C@@H](C)O [Example 43]
4 | ≥ 200 | ≥ 200 | ≥ 200 | ≥ 200 | ≥ 200 | ≥ 200 | ≥ 200 | ≥ 200 | 45 | 26.5 | CC[C@H](C)[C@H](NC(=O)[C@H](C)NC(=O)CNC(=O)[C@H](Cc1ccccc1)NC(=O)[C@H](CC(N)=O)NC(=O)[C@@H]1CCCN1C(=O)[C@H](CO)NC(=O)[C@H](CO)NC(=O)[C@H](Cc1c[nH]cn1)NC(=O)[C@H](CCCNC(=N)N)NC(=O)[C@H](CC(C)C)NC(=O)[C@H](Cc1ccccc1)NC(=O)[C@H](CCC(=O)O)NC(=O)[C@H](C)NC(=O)[C@H](CC(C)C)NC(=O)[C@H](CCCNC(=N)N)NC(=O)[C@H](CCC(N)=O)NC(=O)[C@@H](NC(=O)[C@H](C)NC(=O)[C@@H]1CSSC[C@H](NC(=O)[C@H](CCCCN)NC(=O)CC[C@H](NC(=O)CCCCCCCCCCCCCCCCCCC(=O)O)C(=O)O)C(=O)N[C@@H](CC(N)=O)C(=O)N[C@@H]([C@@H](C)O)C(=O)N[C@@H](C)C(=O)N[C@@H]([C@@H](C)O)C(=O)N1)[C@@H](C)O)C(=O)N1CCC[C@H]1C(=O)N[C@@H](CO)C(=O)N[C@@H](CO)C(=O)N[C@H](C(=O)N1CCC[C@H]1C(=O)N[C@H](C(=O)NCC(=O)N[C@@H](CO)C(=O)N[C@@H](CC(N)=O)C(=O)N[C@H](C(=O)N[C@@H](Cc1ccc(O)cc1)C(N)=O)[C@@H](C)O)C(C)C)[C@@H](C)O [Example 31] ({C20 diacid-γGlu}-KCNTATCATQRLAEFLRHSSPNFGAIPSSTPVGSNTY-NH2; disulfide 2-7 (inferred))
5 | ≥ 200 | ≥ 200 | ≥ 200 | ≥ 200 | ≥ 200 | – | ≥ 200 | ≥ 200 | 3 | 33.5 | CC[C@H](C)[C@H](NC(=O)[C@H](C)NC(=O)CNC(=O)[C@H](Cc1ccccc1)NC(=O)[C@H](CC(N)=O)NC(=O)[C@@H]1CCCN1C(=O)[C@H](CO)NC(=O)[C@H](CO)NC(=O)[C@H](Cc1c[nH]cn1)NC(=O)[C@H](CCCNC(=N)N)NC(=O)[C@H](CC(C)C)NC(=O)[C@H](Cc1ccccc1)NC(=O)[C@H](CCC(=O)O)NC(=O)[C@H](C)NC(=O)[C@H](CC(C)C)NC(=O)[C@H](CCCNC(=N)N)NC(=O)[C@H](CCC(N)=O)NC(=O)[C@@H](NC(=O)[C@H](C)NC(=O)[C@@H]1CSSC[C@H](NC(=O)[C@@H](N)CCCCNC(=O)CC[C@H](NC(=O)CC[C@H](NC(=O)CCCCCCCCCCCCCCCCCCC(=O)O)C(=O)O)C(=O)O)C(=O)N[C@@H](CC(N)=O)C(=O)N[C@@H]([C@@H](C)O)C(=O)N[C@@H](C)C(=O)N[C@@H]([C@@H](C)O)C(=O)N1)[C@@H](C)O)C(=O)N[C@@H](CC(C)C)C(=O)N[C@@H](CO)C(=O)N[C@@H](CO)C(=O)N[C@H](C(=O)N1CCC[C@H]1C(=O)N[C@H](C(=O)NCC(=O)N1CCC[C@H]1C(=O)N[C@@H](CCC(=O)O)C(=O)N[C@H](C(=O)N[C@@H](Cc1ccc(O)cc1)C(N)=O)[C@@H](C)O)C(C)C)[C@@H](C)O [Example 121] (H-K([γGlu-γGlu-C20 diacid])CNTATCATQRLAEFLRHSSPNFGAILSSTPVGPETY-NH2; disulfide 2-7; N-terminus assumed)
